In one data set the test system is Wistar rats. In words: Rat Penile Erection Model. Format: in vivo. To be noted: for Induced Penile Erection in Rats, Incidence (%): subcutaneous, animals with 1 or more erections in 60 minutes; for induced penile erections in rats (significance): subcutaneous administration, doses of 0.01 μmol/kg to 0.10 μmol/kg. The protocol:
Wistar rats were used as a primary animal model to study penile erection in vivo. All experiments were carried out between 9:00 AM and 3:00 PM in a diffusely illuminated testing room with a red light. Animals were weighed and allowed to adapt to the testing room for 60 minutes before the beginning of experiments. Rats were placed individually in a transparent cage (20×30×30 cm) after drug injection.
(L)-Ascorbic acid in saline (1 mg/mL) was used as vehicle. Twelve animals were used per dose.

For the next data set, the system named is Male Fitch ferrets. Details: species or system ferret. The settings on record: in vivo, sc. How it is done:
Male Fitch ferrets (body weights 1.0-1.5 kg) were obtained from Marshall Farms. Ferrets were fasted overnight before experimentation. Apomorphine or a compound of the present invention was administrated subcutaneously; animals were placed individually in observation cages and the drug-induced emesis and signs of nausea were determined (by direct observation) for a period of 90 minutes following drug injection. Nausea was characterized by behaviors such as licking, gagging, backing, head burying, and intense abdominal grooming. Emesis was usually preceded by these behaviors and was characterized by rhythmic abdominal contractions which were associated with vomiting or retching movement.
Sterile saline was used as vehicle. Six animals were used per dose.

Data on 19 compounds can be found in patent US20020169166A1, “Benzimidazoles that are useful in treating sexual dysfunction” (priority 2001, published 2002).

In turn, `O=C(N1CCCC1)n1c(CN2CCN(c3ccccn3)CC2)nc2ccccc21` [Example 9, 2-[(4-pyridin-2-ylpiperazin-1-yl)methyl]-1-(pyrrolidin-1-ylcarbonyl)-1H-benzimidazole] returned a melting point of 120 to 121 °C.

Regarding `C[C@H]1CN(c2ccccn2)CCN1Cc1nc2ccccc2[nH]1` [Example 25, 2-{[(2S)-2-methyl-4-pyridin-2-ylpiperazin-1-yl]methyl}-1H-benzimidazole], the melting point was in the range of 149 to 151 °C.

`Clc1ccccc1N1CCN(Cc2nc3ccccc3[nH]2)CC1` [Example 13, 2-{[4-(2-chlorophenyl)piperazin-1-yl]methyl}-1H-benzimidazole] registered a melting point of 245 to 246 °C.

As for `Fc1cccnc1N1CCN(Cc2nc3ccccc3[nH]2)CC1` [Example 28, 2-{[4-(3-fluoropyridin-2-yl)piperazin-1-yl]methyl}-1H-benzimidazole], the melting point lay in the range of 210 to 212 °C. In the case of `CN1CCc2cccc3c2[C@H]1Cc1ccc(O)c(O)c1-3` [Apomorphine, (6aR) 5,6,6a,7-tetrahydro-6-methyl-4H-dibenzo[de,g]quinoline-10,11-diol, reference compound], the “incidence of rat penile erections” value with Wistar rats (positive control of Table 1, dose 0.1 μmol/kg) worked out at 83%; in the data set with Wistar rats (positive control of Table 2, dose 0.1 μmol/kg) it was 93%. `Fc1ccccc1N1CCN(Cc2nc3ccccc3[nH]2)CC1` [Example 14, 2-{[4-(2-fluorophenyl)piperazin-1-yl]methyl}-1H-benzimidazole] gave a melting point of 262 to 264 °C. As for `CN(C)C(=O)n1c(CN2CCN(c3ccccn3)CC2)nc2ccccc21` [Example 10, N,N-dimethyl-2-[(4-pyridin-2-ylpiperazin-1-yl)methyl]-1H-benzimidazole-1-carboxamide], the melting point lay in the range of 174 to 176 °C. As to `c1ccc(N2CCN(Cc3nc4ccccc4[nH]3)CC2)nc1` [2-[(4-pyridin-2-ylpiperazin-1-yl)methyl]-1H-benzimidazole], the “Induced Penile Erection in Rats, Incidence (%)” value (shortened to “Induced Penile Erection … (%)”) stood at 25% in the data set on Wistar rats (dose 0.003 μmol/kg, Table 1); 50% in the data set with Wistar rats (dose 0.01 μmol/kg, Table 1); 83% with Wistar rats (dose 0.03 μmol/kg, Table 1); 58% in the data set on Wistar rats (dose 0.10 μmol/kg, Table 1). The “induced penile erections in rats (significance)” value in the data set on Wistar rats was “statistically significant”. The “emesis in ferrets (in words)” value in the data set with Male Fitch ferrets is “did not induce emesis”. With `CSc1ccccc1N1CCN(Cc2nc3ccccc3[nH]2)CC1` [Example 18, 2-({4-[2-(methylthio)phenyl]piperazin-1-yl}methyl)-1H-benzimidazole], the melting point lay within 214 to 216 °C. Same read-out and setting: then `CCOc1ccccc1N1CCN(Cc2nc3ccccc3[nH]2)CC1` [Example 19, 2-{[4-(2-ethoxyphenyl)piperazin-1-yl]methyl}-1H-benzimidazole], with 95 to 100 °C; and `N#Cc1ccccc1N1CCN(Cc2nc3ccccc3[nH]2)CC1` [Example 12, 2-[4-(1H-benzimidazol-2-ylmethyl)piperazin-1-yl]benzonitrile], with 236 to 237 °C; and `Oc1ccccc1N1CCN(Cc2nc3ccccc3[nH]2)CC1` [Example 20, 2-[4-(1H-benzimidazol-2-ylmethyl)piperazin-1-yl]phenol], with 208 to 216 °C. Same read-out and setting: then `c1cnc(N2CCN(Cc3nc4ccccc4[nH]3)CC2)nc1` [Example 2, 2-[(4-pyrimidin-2-ylpiperazin-1-yl)methyl]-1H-benzimidazole], with 198 to 200 °C.

`c1ccc2[nH]c(CN3CCN(c4nccs4)CC3)nc2c1` [Example 7, 2-{[4-(1,3-thiazol-2-yl)piperazin-1-yl]methyl}-1H-benzimidazole]: the melting point was 203 to 205 °C. `C[C@@H]1CN(c2ccccn2)CCN1Cc1nc2ccccc2[nH]1` [Example 26, 2-{[(2R)-2-methyl-4-pyridin-2-ylpiperazin-1-yl]methyl}-1H-benzimidazole] displayed a melting point of 151 to 153 °C. Same read-out and setting: then `CC1CN(c2ccccn2)CCN1Cc1nc2ccccc2[nH]1` (stereo not drawn) [Example 24, 2-[(2-methyl-4-pyridin-2-ylpiperazin-1-yl)methyl]-1H-benzimidazole], with 207 to 209 °C; and `N#Cc1cccnc1N1CCN(Cc2nc3ccccc3[nH]2)CC1` [Example 4, 2-[4-(1H-benzimidazol-2-ylmethyl)piperazin-1-yl]nicotinonitrile], with 208 to 210 °C.

`Oc1ccc(N2CCN(Cc3nc4ccccc4[nH]3)CC2)nc1` [6-[4-(1H-benzimidazol-2-ylmethyl)piperazin-1-yl]pyridin-3-ol] returned a melting point of 144 to 145 °C. Moreover, the “Induced Penile Erection … (%)” value in the data set on Wistar rats (dose 0.01 μmol/kg, Table 2) came out at 42%. For the same compound, the “Induced Penile Erection … (%)” value in the data set on Wistar rats (dose 0.03 μmol/kg, Table 2) is given as 58%. Also, in the data set with Wistar rats (dose 0.1 μmol/kg, Table 2), the “Induced Penile Erection … (%)” value worked out at 58%. In the data set with Wistar rats (dose 0.3 μmol/kg, Table 2), the “Induced Penile Erection … (%)” value amounted to 33%. The “induced penile erections in rats (significance)” value with Wistar rats is on record as “statistically significant”. On to `Oc1ccc(N2CCN(Cc3nc4ccccc4[nH]3)CC2)cc1` [Example 17, 4-[4-(1H-benzimidazol-2-ylmethyl)piperazin-1-yl]phenol], for which the melting point fell in the range of 206 to 209 °C.
